Assay results published in patent US12552799B2, “Triazolone compounds” (Nxera Pharma UK Limited, priority 2020, dated 2026).

Tests used:
[1] = target: human adenosine A1 receptor (Homo sapiens (Human), UniProt P30542); test: Adenosine receptor binding assay, A1 ([3H]DPCPX inhibition binding on membranes); conditions: 1 nM [3H]DPCPX, 25° C., 1 h, Ki from IC50 by Cheng-Prusoff
Experimental: (§1) Inhibition binding assays were performed using 0.2 μg of membranes prepared from HEK293 cells infected with BacMam human adenosine A2A receptor or 1.4 μg of membranes prepared from HEK293 cells infected with BacMam human adenosine A1 receptor. Membranes were incubated in 50 mM Tris-HCl (HEK293-hA2A; pH 7.4) or 50 mM Tris-HCl, 100 mM NaCl, 10 mM MgCl2 (CHO-hA1; pH 7.4) in the presence of varying concentrations of test compound and 1 nM [^3H]ZM241385 (HEK293-hA2A) or [^3H]DPCPX (CHO-hA1) at 25° C. for 1 h. The assay was then terminated by rapid filtration onto GF/B grade Unifilter plates using a TomTec cell harvester, followed by 5×0.5 ml washes with ddH2O. Nonspecific binding was defined in the presence of 1 μM CGS15943 (HEK293-hA2A) or 1 μM DPCPX (CHO-hA1). Bound radioactivity was determined by liquid scintillation counting and inhibition curves were analysed using a four-parameter logistic equation. IC50 values were converted to Ki values with the Cheng-Prusoff equation using a KD value derived from saturation binding studies.

[2] = target: human adenosine A2A receptor (Homo sapiens (Human), UniProt P29274); test: Adenosine receptor binding assay, A2A ([3H]ZM241385 inhibition binding on HEK293 membranes); conditions: 1 nM [3H]ZM241385, 25° C., 1 h, Ki from IC50 by Cheng-Prusoff
human adenosine A2A receptor, sequence (P29274 whole entry): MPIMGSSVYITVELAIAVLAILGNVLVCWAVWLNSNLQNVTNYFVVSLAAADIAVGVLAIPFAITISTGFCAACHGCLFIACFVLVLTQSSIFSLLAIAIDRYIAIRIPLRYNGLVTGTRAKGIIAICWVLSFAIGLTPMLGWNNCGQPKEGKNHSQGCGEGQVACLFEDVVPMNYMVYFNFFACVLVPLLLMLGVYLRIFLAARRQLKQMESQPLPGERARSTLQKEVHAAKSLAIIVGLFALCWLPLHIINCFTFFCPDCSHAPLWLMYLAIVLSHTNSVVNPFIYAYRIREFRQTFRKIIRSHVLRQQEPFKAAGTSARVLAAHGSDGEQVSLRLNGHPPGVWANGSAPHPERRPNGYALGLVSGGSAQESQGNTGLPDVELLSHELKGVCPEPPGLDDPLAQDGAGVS
Experimental: as §1

[3] = target: human CB-1 cannabinoid receptor (Homo sapiens (Human), UniProt P21554); test: CB-1 receptor radioligand binding assay ([3H]CP 55940, transfected CHO cell membranes); conditions: 0.5 nM [3H]CP 55940, 120 min at 37° C., agonist site
human CB-1 cannabinoid receptor, sequence (P21554 whole entry): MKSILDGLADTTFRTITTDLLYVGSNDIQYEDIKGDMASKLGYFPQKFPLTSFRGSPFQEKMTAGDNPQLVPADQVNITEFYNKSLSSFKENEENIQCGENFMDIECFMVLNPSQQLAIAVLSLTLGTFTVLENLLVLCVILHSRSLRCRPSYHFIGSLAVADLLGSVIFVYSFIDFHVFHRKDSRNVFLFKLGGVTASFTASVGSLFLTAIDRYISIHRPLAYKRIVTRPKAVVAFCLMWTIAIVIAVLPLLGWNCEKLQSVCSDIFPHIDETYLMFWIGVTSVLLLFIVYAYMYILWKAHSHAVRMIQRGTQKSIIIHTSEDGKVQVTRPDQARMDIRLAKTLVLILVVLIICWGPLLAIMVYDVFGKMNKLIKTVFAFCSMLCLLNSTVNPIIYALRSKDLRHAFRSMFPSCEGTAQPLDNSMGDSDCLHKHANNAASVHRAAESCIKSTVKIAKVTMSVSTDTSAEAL
Experimental: Nonspecific binding is determined in the presence of 10 μM WIN 55212-2.
Following incubation, the samples are filtered rapidly under vacuum through glass fiber filters (GF/B, Packard) presoaked with 0.3% PEI and rinsed several times with an ice-cold buffer containing 50 mM Tris-HCl (pH 7.4) and 0.5% BSA using a 96-sample cell harvester (Unifilter, Packard). The filters are dried then counted for radioactivity in a scintillation counter (Topcount, Packard) using a scintillation cocktail (Microscint O, Packard).
The standard reference compound is CP 55940 which is tested in each experiment at several concentrations to obtain a competition curve from which its IC50 is calculated.
In Table 5, blank entries for Ki indicate that the observed binding was too weak to measure a Ki value.

human CB1 receptor = human CB1 receptor (Homo sapiens (Human), UniProt P21554); test: CB1 receptor antagonism, agonist-induced cAMP modulation (HTRF) in transfected CHO cells; type: cell-based; conditions: inhibition of control response to 3 nM CP 55940, cAMP HTRF, read-out: Antag IC50
human CB1 receptor, sequence (P21554 whole entry): as above
Experimental: Receptor antagonism: Evaluation of the antagonist activity of compounds at the human CB1 receptor expressed in transfected CHO cells, determined by measuring their effects on agonist-induced cAMP modulation using the HTRF detection method.
The cells are suspended in HBSS buffer (Invitrogen) complemented with 20 mM HEPES (pH 7.4), then distributed in microplates at a density of 5.10^3 cells/well and preincubated for 5 min at room temperature in the presence of either of the following: HBSS (stimulated control), the reference antagonist AM 281 at 3 μM (basal control) or various concentrations (IC50 determination), or the test compounds.
Thereafter, the reference agonist CP 55940 and the adenylyl cyclase activator NKH 477 are added at respective final concentrations of 3 nM and 3 μM.
For basal control measurements, CP 55940 is omitted from the wells containing 3 μM AM 281.
Following 20 min incubation at 37° C., the cells are lysed and the fluorescence acceptor (D2-labeled cAMP) and fluorescence donor (anti-cAMP antibody labeled with europium cryptate) are added.
After 60 min at room temperature, the fluorescence transfer is measured at λex=337 nm and λem=620 and 665 nm using a microplate reader (Rubystar, BMG). The cAMP concentration is determined by dividing the signal measured at 665 nm by that measured at 620 nm (ratio).
The results are expressed as a percent inhibition of the control response to 3 nM CP 55940.
The standard reference antagonist is AM 281, which is tested in each experiment at several concentrations to generate a concentration-response curve from which its IC50 value is calculated.

human adenosine A1 receptor, sequence (P30542 whole entry): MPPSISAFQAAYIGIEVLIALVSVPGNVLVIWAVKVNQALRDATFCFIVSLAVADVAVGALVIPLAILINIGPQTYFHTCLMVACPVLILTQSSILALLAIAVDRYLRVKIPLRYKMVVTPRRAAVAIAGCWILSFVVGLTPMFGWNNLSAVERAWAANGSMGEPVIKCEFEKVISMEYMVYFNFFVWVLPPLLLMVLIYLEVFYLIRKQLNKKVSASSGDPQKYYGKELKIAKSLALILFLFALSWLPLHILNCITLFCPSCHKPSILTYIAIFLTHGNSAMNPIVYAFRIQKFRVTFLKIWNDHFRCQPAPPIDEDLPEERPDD

Structure (SMILES) | A1 pKi [1] | A2A pKi [2] | Ki [3] [µM] | IC50 (human CB1 receptor) [µM] | Ki ([1]; read-out: A1 pKi (converted)) [µM] | Ki ([2]; read-out: A2A pKi (converted)) [µM]
C[C@@H]1CC(c2c(-c3ccccc3)nc(N)n3c(=O)n(CCC(F)(F)F)nc23)=C[C@H](C)O1 (relative stereo) [Example 2-1, 5-amino-8-[(cis)-2,6-dimethyl-3,6-dihydro-2H-pyran-4-yl]-7-phenyl-2-(3,3,3-trifluoropropyl)-[1,2,4]triazolo[4,3-c]pyrimidin-3-one] | 6.3 | 8.6 | 31.5 | 72.2 | – | –
C[C@@H]1CN(c2c(-c3ccccc3)nc(N)n3c(=O)n(CCC(F)(F)F)nc23)C[C@H](C)O1 [Example 1-1, 5-amino-8-[(cis)-2,6-dimethylmorpholin-4-yl]-7-phenyl-2-(3,3,3-trifluoropropyl)-[1,2,4]triazolo[4,3-c]pyrimidin-3-one] | <5.4 | 8.3 | 33.9 | 14.7 | – | –
C[C@@H]1CN(c2c(-c3ccccc3)nc(N)n3c(=O)n(C[C@H]4CCCO4)nc23)C[C@H](C)O1 [Example 1-8, 5-amino-8-[(cis)-2,6-dimethylmorpholin-4-yl]-7-phenyl-2-[[(2R)-tetrahydrofuran-2-yl]methyl]-[1,2,4]triazolo[4,3-c]pyrimidin-3-one] | – | – | – | > 100 | – | –
C[C@@H]1CN(c2c(-c3ccccc3)nc(N)n3c(=O)n(Cc4ccc(F)cn4)nc23)C[C@H](C)O1 [Example 1-14, 5-amino-8-[(cis)-2,6-dimethylmorpholin-4-yl]-2-[(5-fluoro-2-pyridyl)methyl]-7-phenyl-[1,2,4]triazolo[4,3-c]pyrimidin-3-one] | 5.9 | 7.9 | 9.5 | 7 | – | –
Cc1cc(-c2c(-c3ccccc3)nc(N)n3c(=O)n(Cc4ccc(F)cn4)nc23)cc(C)c1O [Example 3-1, 5-amino-2-[(5-fluoro-2-pyridyl)methyl]-8-(4-hydroxy-3,5-dimethyl-phenyl)-7-phenyl-[1,2,4]triazolo[4,3-c]pyrimidin-3-one] | – | – | – | > 100 | – | –
Cc1cc(-c2c(-c3ccc(F)cc3)nc(N)n3c(=O)n(CCC(F)(F)F)nc23)cc2ocnc12 [Example 4-1, 5-amino-7-(4-fluorophenyl)-8-(4-methyl-1,3-benzoxazol-6-yl)-2-(3,3,3-trifluoropropyl)-[1,2,4]triazolo[4,3-c]pyrimidin-3-one] | 6.5 | 9.3 | 3.7 | 2.4 | – | –
Cc1cc(-c2c(-c3ccccc3)nc(N)n3c(=O)n(Cc4ccc(F)cn4)nc23)cc2cn[nH]c12 [Example 4-4, 5-amino-2-[(5-fluoro-2-pyridyl)methyl]-8-(7-methyl-1H-indazol-5-yl)-7-phenyl-[1,2,4]triazolo[4,3-c]pyrimidin-3-one] | – | – | 5.5 | 1.3 | 0.0251 | 0.000251
Cc1cc(-c2c(-c3ccccc3)nc(N)n3c(=O)n(Cc4ccc(F)cn4)nc23)cc2nc[nH]c12 [Example 4-5, 5-amino-2-[(5-fluoro-2-pyridyl)methyl]-8-(7-methyl-1H-benzimidazol-5-yl)-7-phenyl-[1,2,4]triazolo[4,3-c]pyrimidin-3-one] | 7.0 | 9.0 | 24.4 | 68.6 | – | –
Cc1ocnc1Cn1nc2c(-c3cc(C)c4ncoc4c3)c(-c3ccccc3)nc(N)n2c1=O [Example 4-6, 5-amino-8-(4-methyl-1,3-benzoxazol-6-yl)-2-[(5-methyloxazol-4-yl)methyl]-7-phenyl-[1,2,4]triazolo[4,3-c]pyrimidin-3-one] | – | – | – | 17.9 | – | –
Cc1ocnc1Cn1nc2c(-c3cc(C)c4[nH]ncc4c3)c(-c3ccccc3)nc(N)n2c1=O [Example 4-9, 5-amino-8-(7-methyl-1H-indazol-5-yl)-2-[(5-methyloxazol-4-yl)methyl]-7-phenyl-[1,2,4]triazolo[4,3-c]pyrimidin-3-one] | 8.8 | 10.1 | 39.1 | 15.5 | – | –
Cc1ocnc1Cn1nc2c(-c3cc(Cl)c4[nH]ncc4c3)c(-c3ccccc3)nc(N)n2c1=O [Example 4-11, 5-amino-8-(7-chloro-1H-indazol-5-yl)-2-[(5-methyloxazol-4-yl)methyl]-7-phenyl-[1,2,4]triazolo[4,3-c]pyrimidin-3-one] | 8.7 | 9.8 | 2.5 | 2.6 | – | –
Cc1ocnc1Cn1nc2c(-c3cc(C)c4[nH]ccc4c3)c(-c3ccccc3)nc(N)n2c1=O [Example 4-12, 5-amino-8-(7-methyl-1H-indol-5-yl)-2-[(5-methyloxazol-4-yl)methyl]-7-phenyl-[1,2,4]triazolo[4,3-c]pyrimidin-3-one] | 7.2 | 9.3 | 39.6 | 22.5 | – | –
